Holding throughout (assay type): cell-based
Holding throughout (conditions): LB broth, 5×10^5 CFU/ml, 37° C., 18 hours, scored by eye

One assay has as its system E. cloacae ATCC222. As to the kind of experiment: Minimum Inhibitory Concentration (MIC) determination, E. cloacae ATCC222. Also noted: unit not given here. As to the method: (§1) MICs were determined by performing two-fold serial dilutions of peptides in LB broth to a final volume of 0.1 ml in round-bottom 96-well assay plates (Corning Life Sciences No 3788). Peptides were initially resuspended in 100% DMSO to 10 mM and subsequently diluted in LB medium to the appropriate concentration. Each well was inoculated with 5×10^5 CFU/ml of the screening stain and incubated at 37° C. without agitation for 18 hours. Plates were scored by eye, and the lowest compound concentration preventing visible growth was determined to be the MIC.

The test system of a further assay is K. pneumoniae ATCC43816. As to the kind of experiment: Minimum Inhibitory Concentration (MIC) determination, K. pneumoniae ATCC43816. Also on record: unit not given here. As to the method: as §1
In the next assay the test system is E. coli 25922 IMP. Description: Minimum Inhibitory Concentration (MIC) determination, E. coli 25922 IMP. As to the method:
as §1

The test system of the next assay is E. coli BW25113. As to the kind of experiment: Minimum Inhibitory Concentration (MIC) determination, E. coli BW25113. Also noted: unit not given here. How it is done: as §1
A further assay relates to E. coli 25922. As to the kind of experiment: Minimum Inhibitory Concentration (MIC) determination, E. coli 25922. Also on record: unit not given here. How it is done: as §1

We go through 13 molecules from US20240279283A1, “CYCLIC PEPTIDE ANTIBIOTICS” (priority 2021, published 2024).

Bridge positions count the residues as written; N and C are the ends. Square brackets hold non-standard residues; d marks the D form. Peptide text beside a SMILES is read from it. Bip = N[C@@H](Cc1ccc(-c2ccccc2)cc1)C(=O)O; 1Nal = N[C@@H](Cc1cccc2ccccc12)C(=O)O; 2Nal = N[C@@H](Cc1ccc2ccccc2c1)C(=O)O; His(π-Me) = Cn1cncc1C[C@H](N)C(=O)O; NMeY = CN[C@@H](Cc1ccc(O)cc1)C(=O)O; NMeF = CN[C@@H](Cc1ccccc1)C(=O)O; Abu = CC[C@H](N)C(=O)O

Turning to `CC[C@@H](C)[C@H]1NC(=O)[C@@H](Cc2ccccc2)NC(=O)CSC[C@H](C(=O)NCC(N)=O)NC(=O)[C@@H](Cc2cncn2C)NC(=O)[C@@H](CCCNC(=N)N)NC(=O)[C@@H](Cc2cnc[nH]2)NC(=O)[C@@H](Cc2ccc(O)cc2)N(C)C(=O)[C@@H](CCCNC(=N)N)NC(=O)[C@@H](CO)NC(=O)CNC(=O)[C@@H](Cc2cnc[nH]2)NC(=O)[C@@H](Cc2cccc3ccccc23)NC1=O` (mixture of isomers) [Compound 18], the “MIC E. cloacae ATCC222 WUXI::MIC” value against E. cloacae ATCC222 is on record as 0.78. In the assay with K. pneumoniae ATCC43816, the “MIC K. pneumoniae ATCC43816 Wuxi::MIC” value came out at 19. The “MIC E. coli 25922 IMP WUXI::MIC” value against E. coli 25922 IMP turned out to be 0.00585. Besides, the “MIC E. coli BW25113 WUXI::MIC” value against E. coli BW25113 worked out at 19. In addition, the “MIC E. coli 25922 WUXI::MIC” value in the assay on E. coli 25922 turned out to be 9.65.

Regarding `CC[C@@H]1NC(=O)[C@H](Cc2ccccc2)NC(=O)CSC[C@@H](C(=O)NCC(N)=O)NC(=O)[C@H](Cc2cncn2C)NC(=O)[C@H](CCCNC(=N)N)NC(=O)[C@H](Cc2c[nH]cn2)NC(=O)[C@H](Cc2ccc(O)cc2)NC(=O)[C@H](CCCNC(=N)N)NC(=O)[C@H](CO)NC(=O)CNC(=O)[C@H](Cc2c[nH]cn2)NC(=O)[C@H](Cc2cccc3ccccc23)NC1=O` [Compound 32, (3R,6S,9S,12S,15S,18S,21S,27S,30S, 33S,36S)-N-(2-amino-2-oxo-ethyl)-36-benzyl-33-ethyl-9,18-bis(3-guanidinopropyl)-21-(hydroxymethyl)-15-[(4-hydroxyphenyl)methyl]-12,27-bis(1H-imidazol-4-ylmethyl)-6-[(3-methylimidazol-4-yl)methyl]-30-(1-naphthylmethyl)-5,8,11,14,17,20,23,26,29,32,35,38-dodecaoxo-1-thia-4,7,10,13,16,19,22,25,28,31,34,37-dodecazacyclononatriacontane-3-carboxamide] ({CH2CO}-F[Abu][1Nal]HGSRYHR[His(π-Me)]CG-NH2; thioether N-12), in the assay with E. coli 25922 IMP, the “MIC E. coli 25922 IMP WUXI::MIC” value was 0.031. Also, the “MIC E. coli 25922 WUXI::MIC” value against E. coli 25922 was 25.

As for `CC[C@H](C)[C@@H]1NC(=O)[C@H]([C@@H](C)O)NC(=O)CNC(=O)[C@H](Cc2ccccc2)NC(=O)CSC[C@@H](C(=O)NCC(N)=O)NC(=O)[C@H](Cc2ccccc2)NC(=O)[C@H](Cc2c[nH]c3ccccc23)NC(=O)[C@H](Cc2ccc(O)cc2)NC(=O)[C@H](CCCNC(=N)N)NC(=O)[C@H](Cc2ccccc2)NC(=O)[C@H](CCCNC(=N)N)NC(=O)[C@H](CCCNC(=N)N)NC(=O)[C@H](CCCCN)NC(=O)[C@H](Cc2cnc[nH]2)NC1=O` (racemic) [Compound 50], the “MIC E. cloacae ATCC222 WUXI::MIC” value against E. cloacae ATCC222 is on record as >64. For the same molecule, in the assay on K. pneumoniae ATCC43816, the “MIC K. pneumoniae ATCC43816 Wuxi::MIC” value was 32. Moreover, the “MIC E. coli 25922 IMP WUXI::MIC” value against E. coli 25922 IMP was determined as 1. Also, in the assay with E. coli BW25113, the “MIC E. coli BW25113 WUXI::MIC” value turned out to be 2. Further, in the assay on E. coli 25922, the “MIC E. coli 25922 WUXI::MIC” value is 2.

Regarding `CC[C@H](C)[C@@H]1NC(=O)[C@H]([C@@H](C)O)NC(=O)[C@H](Cc2cncn2C)NC(=O)[C@H](Cc2ccccc2)NC(=O)CSC[C@@H](C(=O)NCC(N)=O)NC(=O)[C@H](Cc2ccc(O)cc2)NC(=O)[C@H](Cc2ccc(Cl)cc2)NC(=O)[C@H](Cc2ccc(O)cc2)NC(=O)[C@H](CCCNC(=N)N)NC(=O)[C@H](Cc2ccccc2)NC(=O)C(C)(C)NC(=O)[C@H](CO)NC(=O)[C@H](CCCCN)NC(=O)[C@H](CCCNC(=N)N)NC1=O` (mixture of isomers) [Compound 60], the “MIC E. coli 25922 IMP WUXI::MIC” value against E. coli 25922 IMP is listed as 1. In addition, in the assay with E. coli BW25113, the “MIC E. coli BW25113 WUXI::MIC” value amounted to 16. The “MIC E. coli 25922 WUXI::MIC” value in the assay on E. coli 25922 was determined as 16.

Regarding `CCC1NC(=O)C(Cc2c[nH]cn2)NC(=O)C(Cc2ccc(O)cc2)N(C)C(=O)C(CCCNC(=N)N)NC(=O)C(CO)NC(=O)CNC(=O)C(Cc2c[nH]cn2)NC(=O)C(Cc2cccc3ccccc23)NC(=O)C(CC)NC(=O)C(Cc2ccccc2)N(C)C(=O)CSCC(C(=O)NCC(N)=O)NC(=O)C(Cc2cncn2C)NC1=O` (racemic) [Compound 44], the “MIC E. coli 25922 WUXI::MIC” value in the assay with E. coli 25922 is given as >100.

Regarding `CC[C@@H]1NC(=O)[C@H](Cc2ccccc2)NC(=O)CSC[C@@H](C(=O)NCC(N)=O)NC(=O)[C@H](Cc2cncn2C)NC(=O)[C@H](CCCNC(=N)N)NC(=O)[C@H](Cc2c[nH]cn2)NC(=O)[C@H](Cc2ccc(O)cc2)N(C)C(=O)[C@H](CCCNC(=N)N)NC(=O)[C@H](CO)NC(=O)CNC(=O)[C@H](Cc2c[nH]cn2)NC(=O)[C@H](Cc2ccc(-c3ccccc3)cc2)NC1=O` [Compound 24] ({CH2CO}-F[Abu][Bip]HGSR[NMeY]HR[His(π-Me)]CG-NH2; thioether N-12), the “MIC E. coli 25922 IMP WUXI::MIC” value with E. coli 25922 IMP worked out at 0.016. In the assay on E. coli 25922, the “MIC E. coli 25922 WUXI::MIC” value amounted to 13.

`CC[C@H](C)[C@@H]1NC(=O)[C@H]([C@@H](C)O)NC(=O)[C@H](Cc2cncn2C)NC(=O)[C@H](Cc2ccccc2)NC(=O)CSC[C@@H](C(=O)NCC(N)=O)NC(=O)[C@H](Cc2ccc(O)cc2)NC(=O)[C@H](Cc2c[nH]c3ccccc23)NC(=O)[C@H](Cc2ccc(O)cc2)NC(=O)[C@H](CCCNC(=N)N)NC(=O)[C@H](Cc2ccccc2)NC(=O)C(C)(C)NC(=O)[C@H](CO)NC(=O)[C@H](CCCCN)NC(=O)[C@H](CCCNC(=N)N)NC1=O` (racemic) [Compound 59]: in the assay on E. coli 25922 IMP, the “MIC E. coli 25922 IMP WUXI::MIC” value stood at 1. The “MIC E. coli BW25113 WUXI::MIC” value in the assay on E. coli BW25113 came out at 16. Moreover, the “MIC E. coli 25922 WUXI::MIC” value in the assay with E. coli 25922 worked out at 8.

For the molecule `CC[C@@H]1NC(=O)[C@H](Cc2ccccc2)NC(=O)CSC[C@@H](C(=O)NCC(N)=O)NC(=O)[C@H](Cc2cncn2C)NC(=O)[C@H](CN)NC(=O)[C@H](Cc2c[nH]cn2)NC(=O)[C@H](Cc2ccc(O)cc2)N(C)C(=O)[C@H](CCCNC(=N)N)NC(=O)[C@H](CO)NC(=O)CNC(=O)[C@H](Cc2c[nH]cn2)NC(=O)[C@H](Cc2cccc3ccccc23)NC1=O` (racemic) [Compound 46], the “MIC E. coli 25922 WUXI::MIC” value against E. coli 25922 is 100.

As to `CC[C@@H]1NC(=O)[C@H](Cc2ccccc2)NC(=O)CSC[C@@H](C(=O)NCC(N)=O)NC(=O)[C@H](Cc2cncn2C)NC(=O)[C@H](CCCNC(=N)N)NC(=O)[C@H](Cc2c[nH]cn2)NC(=O)[C@H](Cc2ccc(O)cc2)N(C)C(=O)[C@H](CCCNC(=N)N)NC(=O)[C@H](CO)NC(=O)CNC(=O)[C@H](Cc2c[nH]cn2)NC(=O)[C@H](Cc2ccc3ccccc3c2)NC1=O` [Compound 25] ({CH2CO}-F[Abu][2Nal]HGSR[NMeY]HR[His(π-Me)]CG-NH2; thioether N-12), the “MIC E. coli 25922 IMP WUXI::MIC” value in the assay with E. coli 25922 IMP worked out at 0.031. The “MIC E. coli 25922 WUXI::MIC” value against E. coli 25922 is given as 25.

With `CC[C@@H]1NC(=O)[C@H](Cc2ccccc2)NC(=O)CSC[C@@H](C(=O)NCC(N)=O)NC(=O)[C@H](Cc2cncn2C)NC(=O)[C@H](CCCNC(=N)N)NC(=O)[C@H](Cc2c[nH]cn2)NC(=O)[C@H](Cc2ccc(O)cc2)N(C)C(=O)[C@H](C)NC(=O)[C@H](CO)NC(=O)CNC(=O)[C@H](Cc2c[nH]cn2)NC(=O)[C@H](Cc2cccc3ccccc23)NC1=O` [Compound 36] ({CH2CO}-F[Abu][1Nal]HGSA[NMeY]HR[His(π-Me)]CG-NH2; thioether N-12), the “MIC E. coli 25922 IMP WUXI::MIC” value in the assay with E. coli 25922 IMP was determined as 100. Besides, the “MIC E. coli 25922 WUXI::MIC” value with E. coli 25922 is 100.

As for `CC[C@H](C)[C@@H]1NC(=O)[C@H]([C@@H](C)O)NC(=O)[C@H](Cc2cncn2C)NC(=O)[C@H](Cc2ccccc2)NC(=O)CSC[C@@H](C(=O)NCC(N)=O)NC(=O)[C@H](Cc2ccc(O)cc2)NC(=O)[C@H](Cc2c[nH]c3ccccc23)NC(=O)[C@H](Cc2ccc(O)cc2)NC(=O)[C@H](CCCCN)NC(=O)[C@H](Cc2ccccc2)NC(=O)C(C)(C)NC(=O)[C@H](CO)NC(=O)[C@H](CCCCN)NC(=O)[C@H](CCCNC(=N)N)NC1=O` (racemic) [Compound 61], the “MIC E. coli 25922 IMP WUXI::MIC” value in the assay with E. coli 25922 IMP stood at 1. Further, the “MIC E. coli BW25113 WUXI::MIC” value in the assay on E. coli BW25113 came out at 16. Also, the “MIC E. coli 25922 WUXI::MIC” value in the assay with E. coli 25922 was determined as 16.

For `CC[C@@H]1NC(=O)[C@H](Cc2ccccc2)N(C)C(=O)CSC[C@@H](C(=O)NCC(N)=O)NC(=O)[C@H](Cc2cncn2C)NC(=O)[C@H](CCN)NC(=O)[C@H](Cc2c[nH]cn2)NC(=O)[C@H](Cc2ccc(O)cc2)N(C)C(=O)[C@H](CCCNC(=N)N)NC(=O)[C@H](CO)NC(=O)CNC(=O)[C@H](Cc2c[nH]cn2)NC(=O)[C@H](Cc2cccc3ccccc23)NC1=O` (racemic) [Compound 49], the “MIC E. coli 25922 WUXI::MIC” value against E. coli 25922 was 50.

For the molecule `CC[C@@H]1NC(=O)[C@H](Cc2ccccc2)N(C)C(=O)CSC[C@@H](C(=O)NCC(N)=O)NC(=O)[C@H](Cc2cncn2C)NC(=O)[C@H](CCCNC(=N)N)NC(=O)[C@H](Cc2c[nH]cn2)NC(=O)[C@H](Cc2ccc(O)cc2)N(C)C(=O)[C@H](CCCNC(=N)N)NC(=O)[C@H](CO)NC(=O)CNC(=O)[C@H](Cc2c[nH]cn2)NC(=O)[C@H](Cc2cccc3ccccc23)NC1=O` [Compound 23] ({CH2CO}-[NMeF][Abu][1Nal]HGSR[NMeY]HR[His(π-Me)]CG-NH2; thioether N-12), the “MIC E. coli 25922 IMP WUXI::MIC” value in the assay on E. coli 25922 IMP is recorded as 0.016. Further, the “MIC E. coli 25922 WUXI::MIC” value in the assay on E. coli 25922 is given as 25.
